This is an account of results in ChEMBL document CHEMBL1201862, “PubChem BioAssay data set” (2004).

Assay [1] has as its target Photoreceptor-specific nuclear receptor (Homo sapiens, UniProt Q9Y5X4). The format is functional, cell-based.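 Also: CHO-S cells with Gal4-NCOR and VP16-NR2E3 two-hybrid luciferase reporter.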
For another assay, the target named is Steroidogenic factor 1 (Homo sapiens, UniProt Q13285). The experiment in a line: Counterscreen for inverse agonists of the liver receptor homolog-1 (LRH-1; NR5A2): Luminescence-based cell-based high throughput dose response assay to identify inverse agonists of the Steroidogenic Factor 1 Nuclear Receptor (SF1; NR5A1). It counts as functional.
Chain of Steroidogenic factor 1 (Q13285 whole entry): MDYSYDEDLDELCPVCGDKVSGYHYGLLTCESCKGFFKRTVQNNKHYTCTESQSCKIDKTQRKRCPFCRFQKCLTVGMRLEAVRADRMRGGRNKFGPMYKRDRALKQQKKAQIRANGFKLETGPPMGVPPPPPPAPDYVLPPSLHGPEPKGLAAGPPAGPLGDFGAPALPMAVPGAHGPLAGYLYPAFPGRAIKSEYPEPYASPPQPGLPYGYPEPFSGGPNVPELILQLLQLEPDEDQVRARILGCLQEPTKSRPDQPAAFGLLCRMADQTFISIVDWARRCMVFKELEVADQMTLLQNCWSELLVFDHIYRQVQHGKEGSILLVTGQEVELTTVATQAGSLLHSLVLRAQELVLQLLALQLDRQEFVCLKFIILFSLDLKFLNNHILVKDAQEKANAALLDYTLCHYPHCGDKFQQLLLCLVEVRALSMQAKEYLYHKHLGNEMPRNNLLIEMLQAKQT
Assay [2] has as its target Nuclear receptor subfamily 5 group A member 2 (Homo sapiens, UniProt O00482). The format is functional, cell-based.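 Also: HEK293T cells transfected with LRH-1 and a StAR promoter luciferase reporter; potency for inhibitors that lower LRH-1 driven reporter light.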
Assay [3] can be described thus: StAR promoter reporter inhibition counter-screen, dose response, counter-screen for LRH-1 inverse agonist project, cell-based, luminescence, luciferase reporter (AID 651969). It counts as functional.
For the next assay, the target named is Genome polyprotein (dengue virus type 2, UniProt P29990). Put plainly: Dengue-2 NS5 methyltransferase inhibitors, primary screen, biochemical, confirmation dose response (AID 588689). It counts as functional.
Chain of Genome polyprotein (P29990 2492-3391 limits assumed): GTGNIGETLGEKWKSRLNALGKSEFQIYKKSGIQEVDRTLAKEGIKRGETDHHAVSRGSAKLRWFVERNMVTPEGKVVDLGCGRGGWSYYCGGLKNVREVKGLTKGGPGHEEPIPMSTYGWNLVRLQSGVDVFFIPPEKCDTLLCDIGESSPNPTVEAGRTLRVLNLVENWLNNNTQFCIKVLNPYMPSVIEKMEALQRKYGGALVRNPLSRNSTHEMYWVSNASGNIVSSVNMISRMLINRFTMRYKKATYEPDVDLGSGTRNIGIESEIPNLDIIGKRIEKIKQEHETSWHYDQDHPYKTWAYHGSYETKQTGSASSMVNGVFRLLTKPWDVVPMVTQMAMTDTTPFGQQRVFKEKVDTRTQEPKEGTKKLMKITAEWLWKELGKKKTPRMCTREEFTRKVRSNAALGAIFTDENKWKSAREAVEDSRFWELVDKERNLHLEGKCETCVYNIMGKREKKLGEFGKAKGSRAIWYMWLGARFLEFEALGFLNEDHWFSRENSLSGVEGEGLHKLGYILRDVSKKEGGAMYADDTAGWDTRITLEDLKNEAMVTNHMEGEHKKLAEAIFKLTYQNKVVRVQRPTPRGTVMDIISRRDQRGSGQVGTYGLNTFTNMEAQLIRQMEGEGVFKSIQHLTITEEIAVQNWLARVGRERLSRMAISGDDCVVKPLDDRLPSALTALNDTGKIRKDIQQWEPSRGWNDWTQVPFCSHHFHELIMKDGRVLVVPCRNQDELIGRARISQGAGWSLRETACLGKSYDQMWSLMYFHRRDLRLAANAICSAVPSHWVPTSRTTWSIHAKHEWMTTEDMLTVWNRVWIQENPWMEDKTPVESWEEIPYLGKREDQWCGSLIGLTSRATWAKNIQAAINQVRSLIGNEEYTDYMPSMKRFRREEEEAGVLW
Assay [4] deals with Dual specificity protein phosphatase 3 (Homo sapiens, UniProt P51452). The experiment in a line: VHR phosphatase inhibition, dose response, selectivity assay for STEP inhibitor project, biochemical (AID 602374). The format is functional. As to conditions: read-out: IC50_Mean.
Chain of Dual specificity protein phosphatase 3 (P51452 whole entry): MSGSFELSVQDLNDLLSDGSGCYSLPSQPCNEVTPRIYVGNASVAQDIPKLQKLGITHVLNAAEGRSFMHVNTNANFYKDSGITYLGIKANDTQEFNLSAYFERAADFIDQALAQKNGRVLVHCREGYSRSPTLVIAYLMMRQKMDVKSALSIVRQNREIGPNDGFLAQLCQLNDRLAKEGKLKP
The target in assay [5] is T1, Zinc finger protein mex-5 (Caenorhabditis elegans, UniProt Q9XUB2).
T1 sequence (Q9XUB2 whole entry): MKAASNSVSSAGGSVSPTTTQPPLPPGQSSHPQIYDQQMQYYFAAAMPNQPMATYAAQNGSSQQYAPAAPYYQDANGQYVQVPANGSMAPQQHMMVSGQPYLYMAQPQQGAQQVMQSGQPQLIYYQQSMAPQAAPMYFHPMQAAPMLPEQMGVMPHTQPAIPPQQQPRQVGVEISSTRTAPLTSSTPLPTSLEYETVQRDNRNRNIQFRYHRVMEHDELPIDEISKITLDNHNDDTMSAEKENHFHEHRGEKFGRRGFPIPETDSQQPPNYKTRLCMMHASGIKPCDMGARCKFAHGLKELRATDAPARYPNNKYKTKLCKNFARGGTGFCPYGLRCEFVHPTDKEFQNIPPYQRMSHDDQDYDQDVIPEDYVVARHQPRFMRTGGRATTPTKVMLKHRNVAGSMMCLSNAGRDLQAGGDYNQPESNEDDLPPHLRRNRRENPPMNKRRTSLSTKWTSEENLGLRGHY
Put plainly: MEX-5/TCR-2 RNA interaction inhibitors, dose response, biochemical, C. elegans, fluorescence polarization (AID 1960).

Assay [6] deals with T2, Long-chain-fatty-acid--AMP ligase FadD28 (Mycobacterium tuberculosis, UniProt P9WQ59).
T2 sequence (P9WQ59 whole entry): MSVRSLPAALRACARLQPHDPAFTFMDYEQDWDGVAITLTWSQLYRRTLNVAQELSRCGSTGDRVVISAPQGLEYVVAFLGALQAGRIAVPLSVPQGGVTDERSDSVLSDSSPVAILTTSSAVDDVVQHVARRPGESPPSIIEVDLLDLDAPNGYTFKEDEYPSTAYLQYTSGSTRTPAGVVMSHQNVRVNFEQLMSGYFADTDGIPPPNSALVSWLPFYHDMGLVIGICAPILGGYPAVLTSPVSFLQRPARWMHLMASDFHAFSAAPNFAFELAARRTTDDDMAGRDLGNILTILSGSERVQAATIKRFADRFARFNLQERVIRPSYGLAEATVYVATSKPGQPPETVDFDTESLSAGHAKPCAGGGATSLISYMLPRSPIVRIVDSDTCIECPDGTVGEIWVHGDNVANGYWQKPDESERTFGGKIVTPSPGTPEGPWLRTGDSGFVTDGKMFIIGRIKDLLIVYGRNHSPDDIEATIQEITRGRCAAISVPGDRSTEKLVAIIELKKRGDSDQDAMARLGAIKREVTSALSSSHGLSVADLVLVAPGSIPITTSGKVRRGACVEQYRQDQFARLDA
The experiment in a line: Fluorescence polarization aasay to screen for inhibitors that compete for the binding of FadD28 to a bisubstrate Measured in Biochemical System Using Plate Reader - 2147-01_Inhibitor_Dose_CherryPick_Activity. The format is functional, Mycobacterium tuberculosis H37Rv.

For assay [7], the target named is Tyrosine-protein phosphatase non-receptor type 11 (Homo sapiens, UniProt Q06124). The experiment in a line: SHP2 phosphatase inhibition, dose response, selectivity assay for STEP inhibitor project, biochemical (AID 602367). The format is functional. As to conditions: read-out: IC50_Mean.
Chain of Tyrosine-protein phosphatase non-receptor type 11 (Q06124 whole entry): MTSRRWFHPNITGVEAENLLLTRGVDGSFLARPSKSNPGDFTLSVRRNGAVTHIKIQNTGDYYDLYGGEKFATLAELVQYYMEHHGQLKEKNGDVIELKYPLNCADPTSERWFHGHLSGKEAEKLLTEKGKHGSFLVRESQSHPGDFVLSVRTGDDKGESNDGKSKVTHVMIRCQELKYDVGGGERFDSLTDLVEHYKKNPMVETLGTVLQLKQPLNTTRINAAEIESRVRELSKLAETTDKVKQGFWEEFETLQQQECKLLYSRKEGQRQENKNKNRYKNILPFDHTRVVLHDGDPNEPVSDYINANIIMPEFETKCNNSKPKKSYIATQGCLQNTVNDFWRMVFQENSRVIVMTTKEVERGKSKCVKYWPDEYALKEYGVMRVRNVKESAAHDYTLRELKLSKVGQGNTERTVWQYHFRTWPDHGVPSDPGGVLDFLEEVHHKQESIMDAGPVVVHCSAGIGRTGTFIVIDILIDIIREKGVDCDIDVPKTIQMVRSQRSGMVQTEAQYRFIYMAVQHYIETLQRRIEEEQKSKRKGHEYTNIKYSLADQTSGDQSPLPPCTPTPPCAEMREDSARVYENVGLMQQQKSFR
For assay [8], the target named is T3, RNA-binding protein pos-1 (Caenorhabditis elegans, UniProt G5EF15).
T3 sequence (G5EF15 whole entry): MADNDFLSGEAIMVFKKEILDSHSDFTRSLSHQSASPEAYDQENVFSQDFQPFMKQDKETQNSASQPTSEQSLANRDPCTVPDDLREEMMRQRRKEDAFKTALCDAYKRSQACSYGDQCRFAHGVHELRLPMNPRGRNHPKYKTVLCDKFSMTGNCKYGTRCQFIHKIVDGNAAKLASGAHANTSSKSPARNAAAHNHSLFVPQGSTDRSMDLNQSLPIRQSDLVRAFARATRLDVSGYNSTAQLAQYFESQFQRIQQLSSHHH
The experiment in a line: inhibitors of POS-1/mex-3 RNA binding, dose response, biochemical, fluorescence polarization (AID 1964).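 Also: purified POS-1 fused to maltose binding protein made in E. coli; potency of compounds blocking POS-1 binding to fluorescent RNA.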

In assay [9] the target is Tyrosine-protein phosphatase non-receptor type 5 (Homo sapiens, UniProt P54829). Put plainly: STEP phosphatase inhibitors, confirmation, biochemical, fluorescence intensity, uHTS hits (AID 602372). The format is functional. As to conditions: read-out: IC50_Mean.
For a further assay, the target named is T4, X-box-binding protein 1 (Homo sapiens, UniProt P17861).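 Also: confirmatory dose-response counter-screen serving a CHOP assay.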
T4 sequence (P17861 whole entry): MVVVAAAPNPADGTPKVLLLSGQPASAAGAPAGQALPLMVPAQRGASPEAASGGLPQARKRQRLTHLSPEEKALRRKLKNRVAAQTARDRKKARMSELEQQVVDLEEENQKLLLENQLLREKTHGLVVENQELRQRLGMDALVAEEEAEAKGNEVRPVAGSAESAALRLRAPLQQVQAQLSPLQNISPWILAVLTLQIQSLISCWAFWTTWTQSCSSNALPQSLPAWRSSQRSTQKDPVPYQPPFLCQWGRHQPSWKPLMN
It counts as functional, Cricetulus griseus.

Assay [10] in a line: Fluorescence-based cell-based high throughput dose response assay for inhibitors of the interaction of nucleotide-binding oligomerization domain containing 2 (NOD2) and the receptor-interacting serine-threonine kinase 2 (RIPK2). It counts as functional. The conditions noted are these: Homo sapiens.
For assay [11], the target named is Heat shock protein HSP 90-alpha (Homo sapiens, UniProt P07900). It counts as functional, organism-based.
The target in assay [12] is T5, Microphthalmia-associated transcription factor (Homo sapiens, UniProt O75030).
T5 sequence (O75030 whole entry): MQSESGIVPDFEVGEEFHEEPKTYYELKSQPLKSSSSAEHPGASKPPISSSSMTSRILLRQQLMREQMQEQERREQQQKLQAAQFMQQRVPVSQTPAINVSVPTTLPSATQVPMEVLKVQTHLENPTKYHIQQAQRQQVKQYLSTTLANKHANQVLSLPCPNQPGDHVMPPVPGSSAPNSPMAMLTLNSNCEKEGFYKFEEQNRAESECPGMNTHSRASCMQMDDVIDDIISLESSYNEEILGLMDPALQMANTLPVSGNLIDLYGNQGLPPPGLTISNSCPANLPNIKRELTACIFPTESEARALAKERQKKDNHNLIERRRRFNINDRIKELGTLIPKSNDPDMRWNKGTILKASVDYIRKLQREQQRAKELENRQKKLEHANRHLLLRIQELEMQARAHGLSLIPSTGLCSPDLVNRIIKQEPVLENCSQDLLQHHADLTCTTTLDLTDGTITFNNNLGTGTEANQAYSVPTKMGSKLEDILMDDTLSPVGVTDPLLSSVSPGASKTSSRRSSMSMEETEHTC
The experiment in a line: TRPM1 promoter luciferase signal decrease, dose response, MITF inhibitor project, cell-based, SK-MEL-5, cherry-picked, set 3 (AID 493073).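 Also: SK-MEL-5 melanoma cells with luciferase driven by the MITF target TRPM1 promoter.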 The format is functional.

A further assay deals with Beta Lactamase (Pseudomonas aeruginosa, UniProt Q932Y6). The experiment in a line: beta-lactamase reporter inhibitor potency, dose response, artefact control for NOD2-RIPK2 interaction inhibitor project, BLA reporter cells, FRET fluorescence (AID 651552). It counts as functional, cell-based.
Chain of Beta Lactamase (Q932Y6 whole entry): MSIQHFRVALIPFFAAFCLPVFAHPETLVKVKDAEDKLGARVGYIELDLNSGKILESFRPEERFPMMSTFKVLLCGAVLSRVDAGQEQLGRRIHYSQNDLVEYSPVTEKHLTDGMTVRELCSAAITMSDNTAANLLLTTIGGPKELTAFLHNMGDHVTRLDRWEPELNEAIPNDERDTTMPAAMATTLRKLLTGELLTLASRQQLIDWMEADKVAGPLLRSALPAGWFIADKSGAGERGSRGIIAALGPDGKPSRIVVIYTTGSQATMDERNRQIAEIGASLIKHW
Assay [13] addresses T6, Corticotropin-releasing factor receptor 2/Corticotropin-releasing factor-binding protein (Homo sapiens, UniProt P24387+Q13324).
T6 sequence (Q13324 whole entry): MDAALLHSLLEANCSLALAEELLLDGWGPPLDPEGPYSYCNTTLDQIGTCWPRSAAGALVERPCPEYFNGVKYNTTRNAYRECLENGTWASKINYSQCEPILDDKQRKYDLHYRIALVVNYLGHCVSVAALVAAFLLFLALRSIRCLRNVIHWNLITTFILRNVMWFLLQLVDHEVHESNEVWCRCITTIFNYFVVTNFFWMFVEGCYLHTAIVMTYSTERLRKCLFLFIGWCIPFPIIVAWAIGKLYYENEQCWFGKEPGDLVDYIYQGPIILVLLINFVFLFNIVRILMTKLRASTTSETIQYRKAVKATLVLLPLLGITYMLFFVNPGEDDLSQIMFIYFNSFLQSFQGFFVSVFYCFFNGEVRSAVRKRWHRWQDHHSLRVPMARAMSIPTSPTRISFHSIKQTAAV
T6 sequence (P24387 whole entry): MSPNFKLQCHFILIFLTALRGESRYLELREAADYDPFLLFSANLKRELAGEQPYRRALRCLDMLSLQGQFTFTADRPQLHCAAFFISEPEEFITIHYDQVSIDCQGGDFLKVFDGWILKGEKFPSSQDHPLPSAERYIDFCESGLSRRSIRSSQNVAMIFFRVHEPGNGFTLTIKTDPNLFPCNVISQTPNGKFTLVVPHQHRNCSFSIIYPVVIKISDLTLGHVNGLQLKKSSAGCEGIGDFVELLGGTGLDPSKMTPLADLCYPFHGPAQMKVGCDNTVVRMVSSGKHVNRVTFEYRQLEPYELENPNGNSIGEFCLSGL
Put plainly: Dose Response confirmation of uHTS hits for small molecule antagonists of the CRF-binding protein and CRF-R2 receptor complex. The format is functional. As to conditions: read-out: IC50_Mean.

Assay [14] can be described thus: CRF-BP/CRF-R2 complex antagonists, dose response, cell-based, uHTS hits, 384-well (AID 651639). It counts as functional, Homo sapiens. The conditions noted are these: read-out: IC50_Mean.
For assay [15], the target named is T6, Corticotropin-releasing factor receptor 2/Corticotropin-releasing factor-binding protein. Put plainly: activators of CRF receptor 2 with binding protein – uHTS hits, confirmation (AID 602473). It counts as functional. As to conditions: read-out: EC50_Mean.
Assay [16] concerns the target T7, Small ubiquitin-related modifier 1 (Homo sapiens, UniProt P63165). The experiment in a line: inhibitors of SUMO1 partner interactions, dose response, biochemical, FRET (AID 624383). It counts as functional. The conditions noted are these: read-out: IC50_Mean.
Assay [17] addresses T8, Low molecular weight phosphotyrosine protein phosphatase (Homo sapiens, UniProt P24666).
T8 sequence (P24666 whole entry): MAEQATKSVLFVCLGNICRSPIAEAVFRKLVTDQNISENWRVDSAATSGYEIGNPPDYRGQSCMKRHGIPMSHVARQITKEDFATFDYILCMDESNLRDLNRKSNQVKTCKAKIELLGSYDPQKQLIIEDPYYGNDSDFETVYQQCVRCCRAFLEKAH
It counts as functional. As to conditions: read-out: IC50_Mean.

The target of assay [18] is T7, Small ubiquitin-related modifier 1. Put plainly: inhibitors of SUMO1 peptide binding, dose response, biochemical, fluorescence polarization, uHTS hits (AID 624382). It counts as functional. The conditions noted are these: read-out: IC50_Mean.
For assay [19], the target named is T8, Low molecular weight phosphotyrosine protein phosphatase. The format is functional. As to conditions: read-out: IC50_Mean. The source holds these as a separate data set.
For assay [20], the target named is T9, ATP-dependent translocase ABCB1 (Homo sapiens, UniProt P08183). The experiment in a line: ABCB1 efflux inhibitor potency, dose response, Jurkat-DNR cells, JC-1, flow cytometry, set 2 (AID 504569).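 Also: potency of pump inhibitors that raise cellular JC-1 green fluorescence up to the nicardipine level.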 As to conditions: read-out: EC50_MICROM_. The format is functional.
T9 sequence (P08183 whole entry): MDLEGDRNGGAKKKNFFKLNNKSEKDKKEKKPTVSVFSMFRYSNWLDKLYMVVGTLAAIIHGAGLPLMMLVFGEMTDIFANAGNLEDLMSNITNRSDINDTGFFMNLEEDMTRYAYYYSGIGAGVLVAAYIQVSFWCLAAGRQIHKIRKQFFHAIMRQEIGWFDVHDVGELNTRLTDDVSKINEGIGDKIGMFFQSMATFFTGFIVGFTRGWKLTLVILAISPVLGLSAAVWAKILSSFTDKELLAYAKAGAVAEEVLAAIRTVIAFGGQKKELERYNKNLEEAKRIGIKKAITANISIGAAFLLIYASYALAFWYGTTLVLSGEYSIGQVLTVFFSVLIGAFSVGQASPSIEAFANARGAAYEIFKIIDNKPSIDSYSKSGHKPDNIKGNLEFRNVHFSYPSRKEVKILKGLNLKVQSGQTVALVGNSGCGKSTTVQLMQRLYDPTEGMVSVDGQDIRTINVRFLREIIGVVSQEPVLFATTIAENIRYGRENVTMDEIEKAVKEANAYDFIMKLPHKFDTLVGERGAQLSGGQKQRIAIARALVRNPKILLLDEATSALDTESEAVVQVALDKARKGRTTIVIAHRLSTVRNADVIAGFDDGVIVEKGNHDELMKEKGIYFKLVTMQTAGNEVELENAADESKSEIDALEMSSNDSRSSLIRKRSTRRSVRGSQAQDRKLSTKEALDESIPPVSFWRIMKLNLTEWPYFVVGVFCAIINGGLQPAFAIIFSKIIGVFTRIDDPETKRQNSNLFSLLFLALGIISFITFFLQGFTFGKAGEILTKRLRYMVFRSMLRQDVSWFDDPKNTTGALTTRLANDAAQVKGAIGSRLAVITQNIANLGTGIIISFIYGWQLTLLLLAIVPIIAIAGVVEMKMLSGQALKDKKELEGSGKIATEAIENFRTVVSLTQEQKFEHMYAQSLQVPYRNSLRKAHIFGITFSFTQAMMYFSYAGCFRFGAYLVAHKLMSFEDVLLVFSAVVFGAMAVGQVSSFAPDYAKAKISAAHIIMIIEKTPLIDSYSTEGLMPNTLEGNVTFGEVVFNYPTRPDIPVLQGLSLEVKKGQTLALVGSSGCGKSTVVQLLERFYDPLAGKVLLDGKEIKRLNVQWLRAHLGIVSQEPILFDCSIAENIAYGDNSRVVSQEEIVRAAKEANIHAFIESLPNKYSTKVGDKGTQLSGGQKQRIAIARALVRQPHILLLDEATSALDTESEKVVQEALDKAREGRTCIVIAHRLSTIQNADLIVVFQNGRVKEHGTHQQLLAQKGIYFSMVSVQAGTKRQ
Assay [21] deals with T9, ATP-dependent translocase ABCB1. The experiment in a line: ABCG2 efflux pump inhibitor potency, dose response, Ig-MXP3 cells, JC-1, flow cytometry, set 2 (AID 504566).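 Also: flow cytometry median green fluorescence of retained JC-1 dye; potency of efflux pump inhibition measured as rising substrate retention.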 It counts as functional. As to conditions: read-out: EC50_MICROM_.

Molecules are shown by their SMILES. Calls of active or inactive are those of the source.

T7 sequence (P63165 whole entry): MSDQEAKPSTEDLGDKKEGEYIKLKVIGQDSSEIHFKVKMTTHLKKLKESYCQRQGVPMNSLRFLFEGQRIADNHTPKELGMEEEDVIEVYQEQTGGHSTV
Chain of Nuclear receptor subfamily 5 group A member 2 (O00482 whole entry): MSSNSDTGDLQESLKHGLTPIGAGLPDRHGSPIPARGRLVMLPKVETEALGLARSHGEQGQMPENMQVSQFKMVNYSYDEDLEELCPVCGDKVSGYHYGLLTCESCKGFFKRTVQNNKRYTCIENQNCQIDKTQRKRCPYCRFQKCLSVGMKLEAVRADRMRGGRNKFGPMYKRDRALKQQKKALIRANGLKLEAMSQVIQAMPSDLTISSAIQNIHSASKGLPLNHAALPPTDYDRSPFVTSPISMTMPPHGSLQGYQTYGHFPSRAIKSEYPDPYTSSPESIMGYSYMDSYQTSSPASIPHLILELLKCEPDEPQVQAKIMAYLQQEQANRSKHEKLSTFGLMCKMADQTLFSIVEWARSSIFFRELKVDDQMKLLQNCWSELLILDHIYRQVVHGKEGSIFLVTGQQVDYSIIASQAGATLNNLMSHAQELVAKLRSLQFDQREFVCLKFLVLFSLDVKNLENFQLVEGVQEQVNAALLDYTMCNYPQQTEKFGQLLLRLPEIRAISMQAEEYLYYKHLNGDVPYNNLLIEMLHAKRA
Chain of Photoreceptor-specific nuclear receptor (Q9Y5X4 whole entry, the tested form may be a part): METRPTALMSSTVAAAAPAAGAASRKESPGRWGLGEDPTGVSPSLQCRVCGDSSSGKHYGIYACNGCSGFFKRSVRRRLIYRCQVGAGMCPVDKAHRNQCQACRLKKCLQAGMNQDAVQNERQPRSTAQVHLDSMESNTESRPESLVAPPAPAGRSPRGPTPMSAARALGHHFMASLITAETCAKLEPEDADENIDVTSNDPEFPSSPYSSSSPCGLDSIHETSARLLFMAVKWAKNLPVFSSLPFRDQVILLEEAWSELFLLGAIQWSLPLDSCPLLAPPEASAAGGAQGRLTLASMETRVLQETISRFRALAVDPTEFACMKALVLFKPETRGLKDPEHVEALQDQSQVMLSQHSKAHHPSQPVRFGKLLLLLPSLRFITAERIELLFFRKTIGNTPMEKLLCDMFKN

As to `Oc1cc(C(F)(F)F)nc(SC/C=C/c2ccccc2)n1`, in assay [1], the IC50 was 12.7 µM (inactive).

`O=C(Nc1ccccc1)c1oc2ccccc2c1NC(=O)C1CC1`: the IC50 (on Steroidogenic factor 1; in [2]; in assay [3]) was 35.9 µM (inactive) each time.

For `COc1cc(/C=C2/C(=O)NN(c3cccc(C)c3)C2=O)cc([N+](=O)[O-])c1O`, the IC50 on Genome polyprotein is 51.5 µM (active); in [4], 4.11 µM (active); in assay [7] it was 5.63 µM (active); in [9], 25.5 µM (inactive). Also, the figures for the EC50 in assay [5] and in [8] were 89.1 µM (active) and > 300 µM (not active), respectively. Also, the AC50 in [6] was 39.2 µM (active).

As for `COc1ccc(C(=O)/C=C/C(=O)N(CC(=O)NC2CCCCC2)Cc2cccs2)c(O)c1`, the “Absolute IC50 (XBP1)” value on X-box-binding protein 1 worked out at 10 µM. Also, the IC50 is 4.66 µM (active) in assay [10] and 24.7 µM (inactive) at Beta Lactamase. Further, the concentration at half-maximal activity (AC50) in assay [11] is 2.98 µM (active); in [12], 5.53 µM (active).

Turning to `N#Cc1c(C(F)(F)F)cc(-c2ccc(Cl)cc2)nc1O`, the IC50 was 4.16 µM (active) in [13] and > 20 µM (inactive) in [14]. The EC50 in assay [15] was > 53 µM (inactive).

In the case of `Cc1cc(C)c2nc3sc(=Cc4ccc(-c5ccccc5C(=O)O)o4)c(=O)n3c2c1`, the IC50 was 5.88 µM (active) in assay [16], 26.5 µM (inactive) in assay [17], > 66.6 µM (inactive) in assay [18] and 62.9 µM (inactive) in assay [19].

Consider `COc1ccc(-c2cc3nc(-c4ccccc4)cc(N4CCN(C(=O)c5ccco5)CC4)n3n2)cc1`, for which the EC50 in assay [20] is 3.35 µM (active); in assay [21] it was 1.28 µM (active).
